Assay results as given in US20220031596A1, “ANTI-AGING AGENT AND ANTI-AGING METHOD” (priority 2018, published 2022).

System: adrenocorticotropic hormone concentration in the plasma
Test: Evaluation of adrenocorticotropic hormone secretion promoting effect (plasma ACTH, 24-week oral ingestion)
Type: in vivo, human
Details: for adrenocorticotropic hormone concentration in the plasma, 0 weeks (before ingestion) / adrenocorticotropic hormone concentration in the plasma, 24 weeks (after ingestion) / adrenocorticotropic hormone concentration in the plasma, Change rate (24 weeks - 0 weeks): High Dose Group (200 mg/daily, oral), mean±SD; for adrenocorticotropic hormone concentration in the plasma, 0 weeks (before ingestion): baseline
Experimental: In order to confirm a change in the adrenocorticotropic hormone quantity before and after ingestion of the nicotinamide mononucleotide, a test was conducted on healthy males and females aged 50 to 70 years.
As a sample of Working Example 10, a capsule formulation containing the nicotinamide mononucleotide and starch (200 mg of the nicotinamide mononucleotide in 4 capsules) (manufactured by SHINKOWA PHARMACEUTICAL Co., Ltd.) was used.
Each group consisting of five healthy males and females aged 50 to 70 years in an unbiased age group ingested the above high dose capsule formulation once a day by 4 capsules for 24 weeks (total 10 subjects, 200 mg/daily ingestion). In order to conduct appropriate evaluations, those who had been regularly using medical products for chronic diseases, those who had been consuming healthy foods that may affect clinical research, and those who were currently participating in other clinical researches or clinical trials or had participated in other clinical researches or clinical trials within the last three months were excluded from the subject for the evaluation. The capsule formulations were ingested at 10 am (between meals and fasting state) together with water or lukewarm water (oral administration).
Measurement of the adrenocorticotropic hormone quantity in the plasma was conducted by requesting the measurement to an external public organization according to a usual method. FIGS. 20a to 20c indicate transitions of the adrenocorticotropic hormone concentration (pg/ml) in the plasma for 24 weeks. FIG. 20a represents the transitions of the whole subjects; FIG. 20b represents the transitions of the male subjects; FIG. 20c represents the transitions of the female subjects. Further, FIGS. 21a to 21c indicate change rates (%) of the blood adrenocorticotropic hormone concentration up to 24 weeks when the nicotinamide mononucleotide was orally administered to the subjects for 24 weeks. FIG. 21a represents the change rates of the whole subjects; FIG. 21b represents the change rates of the male subjects; FIG. 21c represents the change rates of the female subjects. Further, Table 10 indicates the numerical values of the adrenocorticotropic hormone concentration (pg/ml) in the plasma before the ingestion of the nicotinamide mononucleotide (0 weeks) and after the ingestion of the nicotinamide mononucleotide (24 weeks). Note that the numerical values represent mean values±standard deviation.

NC(=O)c1ccc[n+]([C@@H]2O[C@H](COP(=O)([O-])O)[C@@H](O)[C@H]2O)c1 [nicotinamide mononucleotide]
adrenocorticotropic hormone concentration in the plasma, 0 weeks (before ingestion) (Female): 17.5 ± 7.0 pg/mL | adrenocorticotropic hormone concentration in the plasma, 24 weeks (after ingestion) (Female): 21.9 ± 14.2 pg/mL | adrenocorticotropic hormone concentration in the plasma, Change rate (24 weeks - 0 weeks) (Female): 4.4 ± 15.3 pg/mL | adrenocorticotropic hormone concentration in the plasma, 0 weeks (before ingestion) (Male): 24.4 ± 10.0 pg/mL | adrenocorticotropic hormone concentration in the plasma, 24 weeks (after ingestion) (Male): 35.7 ± 10.2 pg/mL | adrenocorticotropic hormone concentration in the plasma, Change rate (24 weeks - 0 weeks) (Male): 11.3 ± 4.6 pg/mL | adrenocorticotropic hormone concentration in the plasma, 0 weeks (before ingestion) (Whole Subjects): 20.9 ± 8.9 pg/mL | adrenocorticotropic hormone concentration in the plasma, 24 weeks (after ingestion) (Whole Subjects): 28.8 ± 13.7 pg/mL | adrenocorticotropic hormone concentration in the plasma, Change rate (24 weeks - 0 weeks) (Whole Subjects): 7.8 ± 11.2 pg/mL | adrenocorticotropic hormone concentrations in the plasma, effect of ingestion (in words) (oral, 200 mg/daily, 24 weeks, FIGS. 20a-20c, 21a-21c): increased
